≈ marks a conversion by molar mass, not a printed value. Like-named read-outs stand apart in the source and are kept apart here.
Columns and labels:
P. aeruginosa PAO1 [1] = type: cell-based, Pseudomonas aeruginosa; settings: PAO1, 18 h
Protocol: (§1) The in vitro antibacterial activity of the UTBLPs was assessed against wild-type and clinically isolated bacterial strains. To obtain the MIC of the compounds, the microbroth dilution susceptibility assay was performed according to the Clinical and Laboratory Standards Institute (CLSI, Wayne, PA, USA) guidelines and as previously described. Briefly, the compounds at varying concentrations were incubated with bacterial inoculum (5 × 10^5 CFU/mL final concentration) at 37 °C for 18 h. Growth in the form of turbidity was confirmed using an EMax Plus microplate reader (Molecular Devices, San Jose, CA, USA) at 590 nm.

MRSA ATCC 33592 [2] = type: cell-based, Staphylococcus aureus; settings: ATCC 33592, 18 h
Protocol: as §1

S. aureus ATCC 29213 [3] = type: cell-based, Staphylococcus aureus; settings: ATCC 29213, 18 h
Protocol: as §1

A. baumannii AB027 = test: microbe, parasite or virus in culture; type: cell-based, Acinetobacter baumannii; settings: AB027, 18 h
Summary of the method: (§2)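 MIC was determined by broth microdilution following CLSI guidelines. Serially varied compound concentrations were incubated with bacterial inoculum at 5 × 10^5 CFU/mL (final) for 18 h at 37 °C. Growth was scored as turbidity by absorbance at 590 nm.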

A. baumannii AB92247 = test: microbe, parasite or virus in culture; type: cell-based, Acinetobacter baumannii; settings: AB92247, 18 h
Summary of the method: as §2

E. coli 94393 = test: microbe, parasite or virus in culture; type: cell-based, Escherichia coli; settings: 94393, 18 h
Summary of the method: as §2

E. coli 94474 = test: microbe, parasite or virus in culture; type: cell-based, Escherichia coli; settings: 94474, 18 h
Summary of the method: as §2

E. cloacae 118564 [4] = test: microbe, parasite or virus in culture; type: cell-based, Enterobacter cloacae; settings: 118564, 18 h
Summary of the method: as §2

K. pneumoniae 113250 = test: microbe, parasite or virus in culture; type: cell-based, Klebsiella pneumoniae; settings: 113250, 18 h
Summary of the method: as §2

[5] = system: P. aeruginosa PA259-96196; type: cell-based, Pseudomonas aeruginosa; settings: for MICUTBLP: UTBLP alone
Protocol: (§3) The synergy of the UTBLPs with various antibiotics was assessed using checkerboard assay as previously described. Briefly, the combination of antibiotic and OMP at varying concentrations were incubated with bacterial inoculum (5 × 10^5 CFU/mL final concentration) at 37 °C for 18 h. Growth in the form of turbidity was confirmed using an EMax Plus microplate reader (Molecular Devices, Union City, CA, USA) at 590 nm. Fractional inhibitory concentration index (FICI) was used to evaluate the interaction between the antibiotic and the OMP. FICI is the sum of the FIC of the antibiotic and the FIC of the OMP. The FIC value is calculated by dividing the MIC of the agents in combination by the MIC of the agent alone. FICI ≤ 0.5 is synergistic, 0.5 < x ≤ 4 is additive, and >4 is antagonistic.

[6] = system: P. aeruginosa PA262-101856; type: cell-based, Pseudomonas aeruginosa; settings: for MICUTBLP: UTBLP alone
Protocol: as §3

P. aeruginosa PAO1 [7] = type: cell-based, Pseudomonas aeruginosa; settings: for MICUTBLP: UTBLP alone
Protocol: as §3

E. cloacae 118564 [8] = type: cell-based, Enterobacter cloacae; settings: for MICUTBLP: UTBLP alone
Protocol: as §3

MRSA ATCC 33592 [9] = type: cell-based, Staphylococcus aureus
Protocol: as §3

S. aureus ATCC 29213 [10] = type: cell-based, Staphylococcus aureus
Protocol: as §3

E. faecalis ATCC 29212 = type: cell-based, Enterococcus faecalis
Protocol: as §3

E. faecium ATCC 27270 = type: cell-based, Enterococcus faecium
Protocol: as §3

[11] = UTBLP in combination with novobiocin
[12] = UTBLP in combination with rifampicin
[13] = novobiocin in combination with the UTBLP
[14] = rifampicin in combination with the UTBLP
[15] = UTBLP in combination with chloramphenicol
[16] = chloramphenicol in combination with the UTBLP
[17] = UTBLP alone, plate with chloramphenicol

Compound CCCCCCCC(=O)N[C@@H](CCCCNC)C(=O)NCCCN(CCCNC(=O)[C@H](CCCCNC)NC(=O)CCCCCCC)CC(=O)N[C@@H](CCCCNC)C(N)=O [UTBLP 2] has an MIC (P. aeruginosa PAO1 [1]) of over 128 µg/mL, an MIC (MRSA ATCC 33592 [2]) of over 128 µg/mL and an MIC (S. aureus ATCC 29213 [3]) of 128 µg/mL (≈ 148 µM). It also gave an MIC (A. baumannii AB027) of over 128 µg/mL, an MIC (A. baumannii AB92247) of over 128 µg/mL and an MIC (E. coli 94393) of over 128 µg/mL. It also gave an MIC (E. coli 94474) of over 128 µg/mL, an MIC (E. cloacae 118564 [4]) of over 128 µg/mL and an MIC (K. pneumoniae 113250) of over 128 µg/mL. For the same compound, the Interpretation ([5]; UTBLP + novobiocin) was “Synergy (FICI ≤ 0.5 is synergistic)”, the Interpretation ([5]; UTBLP + rifampicin) was “Synergy (FICI ≤ 0.5 is synergistic)” and the MICUTBLP ([5]; plate with novobiocin) was over 128 µg/mL. For the same compound, the MICUTBLP ([5]; plate with rifampicin) was over 128 µg/mL, the “MICUTBLP [MICcombo]” value [5, 11] was 16 µg/mL and the “MICUTBLP [MICcombo]” value [5, 12] was 16 µg/mL. The “MICantibiotic [MICcombo]” value [5, 13] was 512 µg/mL, the “MICantibiotic [MICcombo]” value [5, 14] was 4 µg/mL and the Interpretation ([6]; UTBLP + novobiocin) was “Additive (0.5 < x ≤ 4 is additive)”. For the same compound, the Interpretation ([6]; UTBLP + rifampicin) was “Additive (0.5 < x ≤ 4 is additive)”, the MICUTBLP ([6]; plate with novobiocin) was over 128 µg/mL and the MICUTBLP ([6]; plate with rifampicin) was over 128 µg/mL. For the same compound, the “MICUTBLP [MICcombo]” value [6, 11] was 16 µg/mL, the “MICUTBLP [MICcombo]” value [6, 12] was 0.25 µg/mL and the “MICantibiotic [MICcombo]” value [6, 13] was 512 µg/mL. For the same compound, the “MICantibiotic [MICcombo]” value [6, 14] was 512 µg/mL, the Interpretation (P. aeruginosa PAO1 [7]; UTBLP + chloramphenicol) was “Synergy (FICI ≤ 0.5 is synergistic)” and the Interpretation (P. aeruginosa PAO1 [7]; UTBLP + niclosamide) was “Additive (0.5 < x ≤ 4 is additive)”. The Interpretation (P. aeruginosa PAO1 [7]; UTBLP + novobiocin) was “Synergy (FICI ≤ 0.5 is synergistic)”, the Interpretation (P. aeruginosa PAO1 [7]; UTBLP + rifampicin) was “Additive (0.5 < x ≤ 4 is additive)” and the MICUTBLP (P. aeruginosa PAO1 [7]; plate with chloramphenicol) was over 128 µg/mL. For the same compound, the MICUTBLP (P. aeruginosa PAO1 [7]; plate with niclosamide) was over 128 µg/mL, the MICUTBLP (P. aeruginosa PAO1 [7]; plate with novobiocin) was over 128 µg/mL and the MICUTBLP (P. aeruginosa PAO1 [7]; plate with rifampicin) was over 128 µg/mL. The “MICUTBLP [MICcombo]” value (P. aeruginosa PAO1 [7]; [15]) was 8 µg/mL, the “MICUTBLP [MICcombo]” value (P. aeruginosa PAO1 [7]; UTBLP in combination with niclosamide) was 0.25 µg/mL and the “MICUTBLP [MICcombo]” value (P. aeruginosa PAO1 [7]; [11]) was 16 µg/mL. For the same compound, the “MICUTBLP [MICcombo]” value (P. aeruginosa PAO1 [7]; [12]) was 8 µg/mL, the “MICantibiotic [MICcombo]” value (P. aeruginosa PAO1 [7]; [16]) was 8 µg/mL and the “MICantibiotic [MICcombo]” value (P. aeruginosa PAO1 [7]; niclosamide in combination with the UTBLP) was 1024 µg/mL. For the same compound, the “MICantibiotic [MICcombo]” value (P. aeruginosa PAO1 [7]; [13]) was 256 µg/mL, the “MICantibiotic [MICcombo]” value (P. aeruginosa PAO1 [7]; [14]) was 8 µg/mL and the Interpretation (E. cloacae 118564 [8]; UTBLP + novobiocin) was “Synergy (FICI ≤ 0.5 is synergistic)”. For the same compound, the Interpretation (E. cloacae 118564 [8]; UTBLP + rifampicin) was “Synergy (FICI ≤ 0.5 is synergistic)”, the MICUTBLP (E. cloacae 118564 [8]; plate with novobiocin) was over 128 µg/mL and the MICUTBLP (E. cloacae 118564 [8]; plate with rifampicin) was over 128 µg/mL. For the same compound, the “MICUTBLP [MICcombo]” value (E. cloacae 118564 [8]; [11]) was 16 µg/mL, the “MICUTBLP [MICcombo]” value (E. cloacae 118564 [8]; [12]) was 16 µg/mL and the “MICantibiotic [MICcombo]” value (E. cloacae 118564 [8]; [13]) was 8 µg/mL. For the same compound, the Interpretation (MRSA ATCC 33592 [9]; UTBLP + chloramphenicol) was “Additive (0.5 < x ≤ 4 is additive)”, the MICUTBLP (MRSA ATCC 33592 [9]; [17]) was over 128 µg/mL and the “MICUTBLP [MICcombo]” value (MRSA ATCC 33592 [9]; [15]) was 0.25 µg/mL. The “MICchloramphenicol [MICcombo]” value (MRSA ATCC 33592 [9]; [16]) was 64 µg/mL, the MICUTBLP (S. aureus ATCC 29213 [10]; [17]) was 128 µg/mL and the “MICUTBLP [MICcombo]” value (S. aureus ATCC 29213 [10]; [15]) was 0.25 µg/mL. For the same compound, the “MICchloramphenicol [MICcombo]” value (S. aureus ATCC 29213 [10]; [16]) was 16 µg/mL, the Interpretation (E. faecalis ATCC 29212; UTBLP + chloramphenicol) was “Additive (0.5 < x ≤ 4 is additive)” and the MICUTBLP (E. faecalis ATCC 29212; [17]) was over 128 µg/mL. The “MICUTBLP [MICcombo]” value (E. faecalis ATCC 29212; [15]) was 0.25 µg/mL, the “MICchloramphenicol [MICcombo]” value (E. faecalis ATCC 29212; [16]) was 8 µg/mL and the Interpretation (E. faecium ATCC 27270; UTBLP + chloramphenicol) was “Additive (0.5 < x ≤ 4 is additive)”. For the same compound, the MICUTBLP (E. faecium ATCC 27270; [17]) was over 128 µg/mL, the “MICUTBLP [MICcombo]” value (E. faecium ATCC 27270; [15]) was 0.25 µg/mL and the “MICchloramphenicol [MICcombo]” value (E. faecium ATCC 27270; [16]) was 8 µg/mL.

— article PMC8963254, “Effects of Lysine N-ζ-Methylation in Ultrashort Tetrabasic Lipopeptides (UTBLPs) on the Potentiation of Rifampicin, Novobiocin, and Niclosamide in Gram-Negative Bacteria” (Antibiotics, 2022)
